Results reported in PubChem BioAssay (NCI).
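48-hour exposure; five concentrations; linearly interpolated endpoints. TGI: total growth inhibition.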

Legend:
Experiment in all cases: inhibition of tumour cell growth, NCI panel, 48 h
SK-OV-3 ovarian = system: SK-OV-3 ovarian
HS 578T breast = system: HS 578T breast
NCI-H522 lung = system: NCI-H522 lung
OVCAR-8 ovarian = system: OVCAR-8 ovarian
EKVX NSCLC = system: EKVX NSCLC
COLO 205 colon = system: COLO 205 colon
OVCAR-5 ovarian = system: OVCAR-5 ovarian
OVCAR-4 ovarian = system: OVCAR-4 ovarian
UO-31 renal = system: UO-31 renal
K-562 leukemia = system: K-562 leukemia
SR leukemia = system: SR leukemia
HOP-92 NSCLC = system: HOP-92 NSCLC
NCI-H23 lung = system: NCI-H23 lung
NCI/ADR-RES ovarian = system: NCI/ADR-RES ovarian
T-47D breast = system: T-47D breast
U251 CNS = system: U251 CNS
SNB-75 CNS = system: SNB-75 CNS
A498 renal = system: A498 renal
HCT-15 colon = system: HCT-15 colon
M14 melanoma = system: M14 melanoma
HOP-62 NSCLC = system: HOP-62 NSCLC
IGROV1 ovarian = system: IGROV1 ovarian
BT-549 breast = system: BT-549 breast
SK-MEL-28 melanoma = system: SK-MEL-28 melanoma
SN12C renal = system: SN12C renal
HL-60(TB) leukemia = system: HL-60(TB) leukemia
NCI-H226 lung = system: NCI-H226 lung
SF-268 CNS = system: SF-268 CNS
SNB-19 CNS = system: SNB-19 CNS
KM12 colon = system: KM12 colon
HCT-116 colon = system: HCT-116 colon
TK-10 renal = system: TK-10 renal
SW-620 colon = system: SW-620 colon
RPMI-8226 leukemia = system: RPMI-8226 leukemia
MDA-MB-231 breast = system: MDA-MB-231 breast
OVCAR-3 ovarian = system: OVCAR-3 ovarian
DU-145 prostate = system: DU-145 prostate
PC-3 prostate = system: PC-3 prostate
RXF 393 renal = system: RXF 393 renal
A549 NSCLC = system: A549 NSCLC
SK-MEL-5 melanoma = system: SK-MEL-5 melanoma
LOX IMVI melanoma = system: LOX IMVI melanoma
NCI-H460 lung = system: NCI-H460 lung
UACC-62 melanoma = system: UACC-62 melanoma
CAKI-1 renal = system: CAKI-1 renal
MCF7 breast = system: MCF7 breast
786-0 renal = system: 786-0 renal
HT29 colon = system: HT29 colon
MDA-N = system: MDA-N
UACC-257 melanoma = system: UACC-257 melanoma
CCRF-CEM leukemia = system: CCRF-CEM leukemia
MALME-3M melanoma = system: MALME-3M melanoma
HCC-2998 colon = system: HCC-2998 colon
SK-MEL-2 melanoma = system: SK-MEL-2 melanoma
ACHN renal = system: ACHN renal
SF-295 CNS = system: SF-295 CNS
MDA-MB-435 = system: MDA-MB-435
SF-539 CNS = system: SF-539 CNS
MOLT-4 leukemia = system: MOLT-4 leukemia

**Q.** For O=C(O)CCNc1ncnc2nc[nH]c12, which TGI (SK-OV-3 ovarian) is on record?
**A.** > 100 µM

**Q.** What about the TGI (HS 578T breast) of the same compound?
**A.** > 100 µM

**Q.** What about the TGI (NCI-H522 lung) of the same compound?
**A.** > 100 µM

**Q.** What about the TGI (OVCAR-8 ovarian) of the same compound?
**A.** > 100 µM

**Q.** And the TGI (EKVX NSCLC)?
**A.** > 100 µM

**Q.** What about the TGI (COLO 205 colon) of the same compound?
**A.** > 100 µM

**Q.** What about the TGI (OVCAR-5 ovarian) of the same compound?
**A.** > 100 µM

**Q.** What about the TGI (OVCAR-4 ovarian) of the same compound?
**A.** > 100 µM

**Q.** What about the TGI (UO-31 renal) of the same compound?
**A.** > 100 µM

**Q.** What about the TGI (K-562 leukemia) of the same compound?
**A.** > 100 µM

**Q.** What about the TGI (SR leukemia) of the same compound?
**A.** > 100 µM

**Q.** And the TGI (HOP-92 NSCLC)?
**A.** > 100 µM

**Q.** And the TGI (NCI-H23 lung)?
**A.** > 100 µM

**Q.** What about the TGI (NCI/ADR-RES ovarian) of the same compound?
**A.** > 100 µM

**Q.** And the TGI (T-47D breast)?
**A.** > 100 µM

**Q.** What about the TGI (U251 CNS) of the same compound?
**A.** > 100 µM

**Q.** And the TGI (SNB-75 CNS)?
**A.** > 100 µM

**Q.** And the TGI (A498 renal)?
**A.** > 100 µM

**Q.** What about the TGI (HCT-15 colon) of the same compound?
**A.** > 100 µM

**Q.** What about the TGI (M14 melanoma) of the same compound?
**A.** > 100 µM

**Q.** And the TGI (HOP-62 NSCLC)?
**A.** > 100 µM

**Q.** And the TGI (IGROV1 ovarian)?
**A.** > 100 µM

**Q.** And the TGI (BT-549 breast)?
**A.** > 100 µM

**Q.** What about the TGI (SK-MEL-28 melanoma) of the same compound?
**A.** > 100 µM

**Q.** And the TGI (SN12C renal)?
**A.** > 100 µM

**Q.** What about the TGI (HL-60(TB) leukemia) of the same compound?
**A.** > 100 µM

**Q.** What about the TGI (NCI-H226 lung) of the same compound?
**A.** > 100 µM

**Q.** And the TGI (SF-268 CNS)?
**A.** > 100 µM

**Q.** And the TGI (SNB-19 CNS)?
**A.** > 100 µM

**Q.** What about the TGI (KM12 colon) of the same compound?
**A.** > 100 µM

**Q.** What about the TGI (HCT-116 colon) of the same compound?
**A.** > 100 µM

**Q.** And the TGI (TK-10 renal)?
**A.** > 100 µM

**Q.** And the TGI (SW-620 colon)?
**A.** > 100 µM

**Q.** What about the TGI (RPMI-8226 leukemia) of the same compound?
**A.** > 100 µM

**Q.** What about the TGI (MDA-MB-231 breast) of the same compound?
**A.** > 100 µM

**Q.** And the TGI (OVCAR-3 ovarian)?
**A.** > 100 µM

**Q.** What about the TGI (DU-145 prostate) of the same compound?
**A.** > 100 µM

**Q.** What about the TGI (PC-3 prostate) of the same compound?
**A.** > 100 µM

**Q.** And the TGI (RXF 393 renal)?
**A.** > 100 µM

**Q.** What about the TGI (A549 NSCLC) of the same compound?
**A.** > 100 µM

**Q.** What about the TGI (SK-MEL-5 melanoma) of the same compound?
**A.** > 100 µM

**Q.** What about the TGI (LOX IMVI melanoma) of the same compound?
**A.** > 100 µM

**Q.** And the TGI (NCI-H460 lung)?
**A.** > 100 µM

**Q.** And the TGI (UACC-62 melanoma)?
**A.** > 100 µM

**Q.** What about the TGI (CAKI-1 renal) of the same compound?
**A.** > 100 µM

**Q.** What about the TGI (MCF7 breast) of the same compound?
**A.** > 100 µM

**Q.** What about the TGI (786-0 renal) of the same compound?
**A.** > 100 µM

**Q.** What about the TGI (HT29 colon) of the same compound?
**A.** > 100 µM

**Q.** What about the TGI (MDA-N) of the same compound?
**A.** > 100 µM

**Q.** What about the TGI (UACC-257 melanoma) of the same compound?
**A.** > 100 µM

**Q.** And the TGI (CCRF-CEM leukemia)?
**A.** > 100 µM

**Q.** What about the TGI (MALME-3M melanoma) of the same compound?
**A.** > 100 µM

**Q.** And the TGI (HCC-2998 colon)?
**A.** > 100 µM

**Q.** What about the TGI (SK-MEL-2 melanoma) of the same compound?
**A.** > 100 µM

**Q.** And the TGI (ACHN renal)?
**A.** > 100 µM

**Q.** And the TGI (SF-295 CNS)?
**A.** > 100 µM

**Q.** And the TGI (MDA-MB-435)?
**A.** > 100 µM

**Q.** Which TGI (SK-OV-3 ovarian) does the source give for O=C1c2cc(-c3ccccc3)cnc2S(=O)(=O)N1c1ccc(Br)cc1 here?
**A.** 53.9 µM

**Q.** And the TGI (HS 578T breast)?
**A.** 70.6 µM

**Q.** And the TGI (NCI-H522 lung)?
**A.** 54.6 µM

**Q.** What about the TGI (OVCAR-8 ovarian) of the same compound?
**A.** > 100 µM

**Q.** And the TGI (SF-539 CNS)?
**A.** 87.2 µM

**Q.** And the TGI (EKVX NSCLC)?
**A.** > 100 µM

**Q.** And the TGI (COLO 205 colon)?
**A.** > 100 µM

**Q.** What about the TGI (OVCAR-5 ovarian) of the same compound?
**A.** > 100 µM

**Q.** What about the TGI (UO-31 renal) of the same compound?
**A.** > 100 µM

**Q.** What about the TGI (SR leukemia) of the same compound?
**A.** 35 µM

**Q.** And the TGI (HOP-92 NSCLC)?
**A.** 72.1 µM

**Q.** What about the TGI (NCI-H23 lung) of the same compound?
**A.** > 100 µM

**Q.** And the TGI (NCI/ADR-RES ovarian)?
**A.** > 100 µM

**Q.** And the TGI (T-47D breast)?
**A.** > 100 µM

**Q.** What about the TGI (U251 CNS) of the same compound?
**A.** 90.3 µM

**Q.** And the TGI (SNB-75 CNS)?
**A.** 78.8 µM

**Q.** And the TGI (A498 renal)?
**A.** > 100 µM

**Q.** What about the TGI (HCT-15 colon) of the same compound?
**A.** > 100 µM

**Q.** What about the TGI (M14 melanoma) of the same compound?
**A.** > 100 µM

**Q.** What about the TGI (HOP-62 NSCLC) of the same compound?
**A.** 32.2 µM

**Q.** And the TGI (IGROV1 ovarian)?
**A.** > 100 µM

**Q.** What about the TGI (BT-549 breast) of the same compound?
**A.** > 100 µM

**Q.** And the TGI (SK-MEL-28 melanoma)?
**A.** > 100 µM

**Q.** And the TGI (SN12C renal)?
**A.** > 100 µM

**Q.** What about the TGI (HL-60(TB) leukemia) of the same compound?
**A.** > 100 µM

**Q.** What about the TGI (NCI-H226 lung) of the same compound?
**A.** > 100 µM

**Q.** And the TGI (SF-268 CNS)?
**A.** > 100 µM

**Q.** And the TGI (SNB-19 CNS)?
**A.** 35 µM

**Q.** And the TGI (KM12 colon)?
**A.** > 100 µM

**Q.** And the TGI (HCT-116 colon)?
**A.** > 100 µM

**Q.** And the TGI (TK-10 renal)?
**A.** > 100 µM

**Q.** What about the TGI (SW-620 colon) of the same compound?
**A.** > 100 µM

**Q.** What about the TGI (RPMI-8226 leukemia) of the same compound?
**A.** 82.2 µM

**Q.** And the TGI (MDA-MB-231 breast)?
**A.** > 100 µM

**Q.** What about the TGI (MOLT-4 leukemia) of the same compound?
**A.** > 100 µM

**Q.** And the TGI (OVCAR-3 ovarian)?
**A.** > 100 µM

**Q.** What about the TGI (DU-145 prostate) of the same compound?
**A.** > 100 µM

**Q.** And the TGI (PC-3 prostate)?
**A.** > 100 µM

**Q.** And the TGI (A549 NSCLC)?
**A.** 49.3 µM

**Q.** What about the TGI (SK-MEL-5 melanoma) of the same compound?
**A.** > 100 µM

**Q.** And the TGI (LOX IMVI melanoma)?
**A.** > 100 µM

**Q.** What about the TGI (NCI-H460 lung) of the same compound?
**A.** 75 µM

**Q.** What about the TGI (UACC-62 melanoma) of the same compound?
**A.** > 100 µM

**Q.** And the TGI (CAKI-1 renal)?
**A.** > 100 µM

**Q.** What about the TGI (MCF7 breast) of the same compound?
**A.** > 100 µM

**Q.** And the TGI (786-0 renal)?
**A.** > 100 µM

**Q.** What about the TGI (HT29 colon) of the same compound?
**A.** > 100 µM

**Q.** What about the TGI (MDA-N) of the same compound?
**A.** > 100 µM

**Q.** What about the TGI (UACC-257 melanoma) of the same compound?
**A.** > 100 µM

**Q.** And the TGI (CCRF-CEM leukemia)?
**A.** > 100 µM

**Q.** And the TGI (MALME-3M melanoma)?
**A.** 96.9 µM

**Q.** And the TGI (HCC-2998 colon)?
**A.** 39.5 µM

**Q.** And the TGI (SK-MEL-2 melanoma)?
**A.** > 100 µM

**Q.** And the TGI (ACHN renal)?
**A.** > 100 µM

**Q.** What about the TGI (SF-295 CNS) of the same compound?
**A.** 38.5 µM

**Q.** What about the TGI (MDA-MB-435) of the same compound?
**A.** > 100 µM
